Measured values from ChEMBL document CHEMBL4665643 (Bioorg Med Chem Lett, 2019).
pIC50, pKi: −log10 of the molar value.

Assays:
[1] = molecular target: Inhibitor of nuclear factor kappa-B kinase subunit alpha (Homo sapiens) (UniProt O15111); test: Inhibition of recombinant human His-tagged full length IKKalpha expressed in baculovirus expression system at 0.1 uM incubated for 60 mins by Adapta assay relative to control
[2] = molecular target: Tyrosine-protein kinase JAK1 (Homo sapiens, UniProt P23458); test: biochemical
Chain of Tyrosine-protein kinase JAK1 (P23458 whole entry, the tested form may be a part): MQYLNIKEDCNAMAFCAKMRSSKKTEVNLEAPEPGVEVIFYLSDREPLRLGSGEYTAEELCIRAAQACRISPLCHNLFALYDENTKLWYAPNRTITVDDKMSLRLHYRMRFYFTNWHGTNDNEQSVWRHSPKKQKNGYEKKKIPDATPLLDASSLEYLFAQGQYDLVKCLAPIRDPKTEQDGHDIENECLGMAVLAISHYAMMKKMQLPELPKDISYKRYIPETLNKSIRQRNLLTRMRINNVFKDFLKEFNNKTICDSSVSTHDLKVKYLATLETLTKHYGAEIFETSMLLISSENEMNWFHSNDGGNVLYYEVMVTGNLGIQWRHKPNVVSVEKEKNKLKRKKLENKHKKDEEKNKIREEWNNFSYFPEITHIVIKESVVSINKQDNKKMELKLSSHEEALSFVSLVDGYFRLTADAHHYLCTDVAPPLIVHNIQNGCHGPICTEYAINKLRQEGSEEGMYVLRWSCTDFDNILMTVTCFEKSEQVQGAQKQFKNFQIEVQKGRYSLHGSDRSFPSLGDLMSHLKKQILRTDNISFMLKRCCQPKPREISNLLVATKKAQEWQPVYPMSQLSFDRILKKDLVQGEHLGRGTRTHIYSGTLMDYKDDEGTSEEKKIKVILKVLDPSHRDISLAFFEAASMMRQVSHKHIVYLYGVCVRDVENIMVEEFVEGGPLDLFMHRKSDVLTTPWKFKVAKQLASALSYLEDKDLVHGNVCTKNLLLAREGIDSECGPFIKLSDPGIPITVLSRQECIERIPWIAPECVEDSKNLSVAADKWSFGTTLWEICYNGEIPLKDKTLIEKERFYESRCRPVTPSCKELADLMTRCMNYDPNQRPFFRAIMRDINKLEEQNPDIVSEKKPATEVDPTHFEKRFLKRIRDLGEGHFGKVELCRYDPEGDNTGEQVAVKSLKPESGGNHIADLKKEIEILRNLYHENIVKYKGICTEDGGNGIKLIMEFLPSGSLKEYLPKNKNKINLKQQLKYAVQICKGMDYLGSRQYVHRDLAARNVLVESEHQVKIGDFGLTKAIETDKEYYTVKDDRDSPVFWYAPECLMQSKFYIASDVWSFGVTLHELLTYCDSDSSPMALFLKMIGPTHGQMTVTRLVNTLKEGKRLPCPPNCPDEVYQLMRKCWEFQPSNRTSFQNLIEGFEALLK
Description: Inhibition of recombinant human JAK1 (854 to 1154 residues) expressed in insect cells using Y1-B as substrate incubated for 30 mins by microfluidic mobility shift assay

[3] = molecular target: Tyrosine-protein kinase JAK2 (Homo sapiens, UniProt O60674); test: Inhibition of recombinant human GST-tagged JAK2 (809 to 1153 residues) expressed in baculovirus expression system using Tyr 06 as substrate at 0.1 uM incubated for 60 mins by Z'-lyte assay relative to control
[4] = molecular target: Tyrosine-protein kinase receptor UFO (Homo sapiens) (UniProt P30530); test: Inhibition of recombinant human GST-tagged full length AXL expressed in insect expression system using Tyr 06 as substrate at 0.1 uM incubated for 60 mins by Z'-Lyte assay relative to control
[5] = molecular target: Leucine-rich repeat serine/threonine-protein kinase 2 (Homo sapiens, UniProt Q5S007); test: Inhibition of recombinant human GST-tagged LRRK2 (970 to 2527 residues) expressed in baculovirus expression system using LRRKtide as substrate incubated for 60 mins by Adapta assay
Chain of Leucine-rich repeat serine/threonine-protein kinase 2 (Q5S007 whole entry, the tested form may be a part): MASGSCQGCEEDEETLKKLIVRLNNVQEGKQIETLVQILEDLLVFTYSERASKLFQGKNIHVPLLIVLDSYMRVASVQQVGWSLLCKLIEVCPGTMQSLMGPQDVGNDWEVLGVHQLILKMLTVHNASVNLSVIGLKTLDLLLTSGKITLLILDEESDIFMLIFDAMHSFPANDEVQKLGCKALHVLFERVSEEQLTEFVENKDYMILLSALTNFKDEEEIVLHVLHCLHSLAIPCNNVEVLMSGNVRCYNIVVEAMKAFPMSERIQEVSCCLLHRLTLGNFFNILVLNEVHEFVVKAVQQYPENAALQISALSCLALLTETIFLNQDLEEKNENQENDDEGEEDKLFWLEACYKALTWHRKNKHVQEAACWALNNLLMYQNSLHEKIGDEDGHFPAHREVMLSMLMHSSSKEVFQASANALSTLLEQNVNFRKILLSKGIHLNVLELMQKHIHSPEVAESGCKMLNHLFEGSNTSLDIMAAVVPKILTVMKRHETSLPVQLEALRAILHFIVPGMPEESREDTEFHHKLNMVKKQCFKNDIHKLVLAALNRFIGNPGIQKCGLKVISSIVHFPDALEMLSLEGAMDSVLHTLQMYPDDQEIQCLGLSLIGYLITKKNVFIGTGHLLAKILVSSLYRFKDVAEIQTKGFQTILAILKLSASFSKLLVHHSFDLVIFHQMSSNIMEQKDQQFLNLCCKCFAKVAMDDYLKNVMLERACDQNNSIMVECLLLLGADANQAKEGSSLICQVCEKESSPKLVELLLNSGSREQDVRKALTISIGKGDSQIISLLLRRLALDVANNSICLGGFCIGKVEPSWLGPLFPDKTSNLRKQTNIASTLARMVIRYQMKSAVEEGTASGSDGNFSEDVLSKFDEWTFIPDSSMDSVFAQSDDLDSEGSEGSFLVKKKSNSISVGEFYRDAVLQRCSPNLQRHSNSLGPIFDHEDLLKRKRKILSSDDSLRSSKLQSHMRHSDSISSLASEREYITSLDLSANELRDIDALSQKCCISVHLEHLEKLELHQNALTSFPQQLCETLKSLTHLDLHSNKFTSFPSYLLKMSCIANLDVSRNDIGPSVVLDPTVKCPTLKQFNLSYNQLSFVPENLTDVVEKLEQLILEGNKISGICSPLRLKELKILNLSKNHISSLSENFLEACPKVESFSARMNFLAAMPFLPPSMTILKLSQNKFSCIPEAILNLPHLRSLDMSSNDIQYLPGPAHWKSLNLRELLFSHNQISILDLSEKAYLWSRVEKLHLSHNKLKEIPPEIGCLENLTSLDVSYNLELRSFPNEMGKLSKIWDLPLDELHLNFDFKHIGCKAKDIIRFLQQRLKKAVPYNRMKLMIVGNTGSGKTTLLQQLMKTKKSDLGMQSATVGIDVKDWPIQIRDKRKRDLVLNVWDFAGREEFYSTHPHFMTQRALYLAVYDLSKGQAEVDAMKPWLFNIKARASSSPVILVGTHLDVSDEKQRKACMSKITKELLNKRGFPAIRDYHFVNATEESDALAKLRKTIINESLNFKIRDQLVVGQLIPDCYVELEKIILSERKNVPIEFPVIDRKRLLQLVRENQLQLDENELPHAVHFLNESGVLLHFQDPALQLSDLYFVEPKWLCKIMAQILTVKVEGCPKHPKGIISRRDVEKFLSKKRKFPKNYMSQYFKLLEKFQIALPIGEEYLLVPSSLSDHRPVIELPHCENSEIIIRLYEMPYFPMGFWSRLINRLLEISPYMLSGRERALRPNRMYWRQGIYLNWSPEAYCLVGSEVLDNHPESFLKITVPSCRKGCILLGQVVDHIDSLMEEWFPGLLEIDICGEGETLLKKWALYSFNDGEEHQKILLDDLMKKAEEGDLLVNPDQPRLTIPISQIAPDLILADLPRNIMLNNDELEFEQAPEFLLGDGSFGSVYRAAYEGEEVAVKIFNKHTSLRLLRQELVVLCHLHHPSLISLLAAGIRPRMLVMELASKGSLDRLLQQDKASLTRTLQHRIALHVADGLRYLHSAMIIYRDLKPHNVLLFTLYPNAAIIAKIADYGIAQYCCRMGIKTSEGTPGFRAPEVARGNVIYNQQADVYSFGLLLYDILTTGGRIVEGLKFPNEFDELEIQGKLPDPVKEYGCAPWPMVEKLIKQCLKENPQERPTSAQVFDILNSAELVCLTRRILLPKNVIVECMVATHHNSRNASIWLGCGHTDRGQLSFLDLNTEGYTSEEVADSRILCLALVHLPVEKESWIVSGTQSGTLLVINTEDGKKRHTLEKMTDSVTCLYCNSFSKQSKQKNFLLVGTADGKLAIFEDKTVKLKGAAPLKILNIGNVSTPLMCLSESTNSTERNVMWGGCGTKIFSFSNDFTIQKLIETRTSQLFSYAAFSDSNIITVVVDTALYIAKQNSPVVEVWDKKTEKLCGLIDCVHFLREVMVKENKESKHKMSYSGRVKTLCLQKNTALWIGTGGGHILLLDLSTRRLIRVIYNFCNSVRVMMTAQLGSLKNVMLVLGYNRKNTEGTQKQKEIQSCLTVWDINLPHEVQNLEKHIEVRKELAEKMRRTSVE

Chain of Inhibitor of nuclear factor kappa-B kinase subunit alpha (Homo sapiens) (O15111 whole entry): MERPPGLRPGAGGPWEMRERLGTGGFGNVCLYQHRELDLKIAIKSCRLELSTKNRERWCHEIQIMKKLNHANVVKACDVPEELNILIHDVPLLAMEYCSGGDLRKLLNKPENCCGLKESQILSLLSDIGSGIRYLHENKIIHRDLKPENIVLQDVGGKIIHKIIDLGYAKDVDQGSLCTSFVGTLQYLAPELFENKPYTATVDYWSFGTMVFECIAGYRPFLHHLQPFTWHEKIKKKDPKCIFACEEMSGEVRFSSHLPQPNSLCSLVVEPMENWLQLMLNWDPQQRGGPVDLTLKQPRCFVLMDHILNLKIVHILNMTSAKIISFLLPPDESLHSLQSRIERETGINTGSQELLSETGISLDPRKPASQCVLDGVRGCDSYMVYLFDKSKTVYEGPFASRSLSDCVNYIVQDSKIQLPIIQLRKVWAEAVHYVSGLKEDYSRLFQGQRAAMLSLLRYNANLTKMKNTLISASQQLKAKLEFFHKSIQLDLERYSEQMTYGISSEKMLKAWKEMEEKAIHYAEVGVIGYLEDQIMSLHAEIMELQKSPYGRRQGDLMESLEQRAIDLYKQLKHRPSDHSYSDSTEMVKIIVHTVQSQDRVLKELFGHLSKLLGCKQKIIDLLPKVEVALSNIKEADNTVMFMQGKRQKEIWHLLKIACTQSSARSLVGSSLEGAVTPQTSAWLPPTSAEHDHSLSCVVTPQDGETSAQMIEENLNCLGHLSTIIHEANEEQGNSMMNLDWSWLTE

Row | SMILES | inhibition [1] [%] | pKi [2] | inhibition [3] [%] | inhibition [4] [%] | pIC50 [5]
1 | Cn1cc(NC(=O)c2cnn3cccnc23)c(-c2cc(Cl)ccc2OC(F)F)n1 | -3 | 9.68 | 98 | 5 | –
2 | O=C(Nc1c[nH]nc1-c1cc(Cl)ccc1OC(F)F)c1cnn2cccnc12 | – | 9.68 | – | – | 7.74
3 | O=C(Nc1c[nH]nc1-c1cc2ccccc2cc1OC(F)F)c1cnn2cccnc12 | 6 | – | 97 | 0 | 6.74
